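Exposure lasted 48 hours, with cells grown in 96-well plates and compounds tested at five concentrations. Definition used: TGI = concentration required for complete inhibition of growth.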 Where a SMILES comes first, the peptide text is derived from it. The star is where a group is joined. Cbz = O=C(OCc1ccccc1)*; NHNH2 = NN*

Holding throughout (experiment): inhibition of tumour cell growth, NCI panel, 48 h
Test [1] has as its system SNB-19 CNS.
The test system of test [2] is HS 578T breast.
Test [3] deals with UACC-62 melanoma.
Test [4] relates to HCT-116 colon.
For test [5], the system named is HL-60(TB) leukemia.
Test [6] relates to NCI-H522 lung.
Test [7] concerns MDA-MB-231 breast.
In test [8] the test system is OVCAR-3 ovarian.
Test [9] relates to LOX IMVI melanoma.
Test [10] has as its system NCI-H23 lung.

As to `CCCCc1ccc(Nc2nc3c(ncn3COCCO)c(=O)[nH]2)cc1`, the TGI in test [1], in test [2], in test [3], in test [4], in test [5] and in [6] was greater than 100 µM in each case. Besides, the TGI in test [7], in test [8], in test [9] and in [10] was greater than 100 µM in each case.
Turning to `COC(=O)Cc1c([C@H]2[C@H](CC(=O)OC)c3ccccc3N2C(C)=O)[nH]c2ccccc12`, the TGI in [1], in test [2], in test [3], in test [4], in test [5] and in test [6] was greater than 100 µM in each case. The TGI in [7], in test [8], in test [9] and in [10] was greater than 100 µM in each case.
Take `Nc1ccc(S(=O)(=O)Nc2nc3ccccc3nc2N2CCCCC2)cc1`: the TGI in test [1], in test [2], in test [3], in test [4], in test [5] and in test [6] was greater than 100 µM throughout. Besides, the TGI in test [7], in test [8], in test [9] and in test [10] was greater than 100 µM throughout.
As to `COc1c(C)c2nc3ccccc3[nH]c2c2c(=O)ccnc12`, the TGI in test [1] is greater than 100 µM; in test [2], 78.7 µM; in test [4] it was greater than 100 µM; in test [5], greater than 100 µM; in [6] it was greater than 100 µM; in test [7] it was greater than 100 µM. In addition, the TGI in [8], in test [9] and in [10] was greater than 100 µM in each case.
On to `O=c1oc2cc(O)ccc2c(O)c1C(c1ccc(C(c2c(O)c3ccc(O)cc3oc2=O)c2c(O)c3ccc(O)cc3oc2=O)cc1)c1c(O)c2ccc(O)cc2oc1=O`, for which the TGI in test [2], in test [3], in test [4], in test [5], in test [7] and in [8] was greater than 100 µM each time. Also, the TGI in test [9] and in test [10] was greater than 100 µM throughout.
With `CCOC(=O)/C(C#N)=N\Nc1ccc(-n2c(C)nc3ccccc3c2=O)cc1`, the TGI in test [1], in test [2], in [3], in test [4], in test [5] and in test [7] was greater than 100 µM in each case. Besides, the figures for the TGI in [8], in [9] and in [10] were 82.4 µM, greater than 100 µM and greater than 100 µM, respectively.
Take `CC1(C)CNC(=O)C2(C=NC(C)(C)CNC(=O)C3(C=N1)CCCO3)CCCO2` (centres undefined): the TGI in [1], in test [2], in test [3], in [4], in [5] and in test [6] was greater than 10 µM throughout. For the same compound, the TGI in test [7], in test [8] and in test [10] was greater than 10 µM throughout.
`O=C1C=C(c2ccccc2)O/C1=C/C(=O)c1ccc(Cl)cc1`: the TGI was greater than 100 µM in test [1]; 55.5 µM in test [2]; 28.5 µM in [3]; 30.6 µM in test [4]; 5.38 µM in [5]; 27.7 µM in test [6]. Besides, the TGI in [7] turned out to be 31.2 µM; in [8] it was 31.9 µM; in [9], 26.1 µM.
`COC(=O)CC(NC(=O)OCc1ccccc1)C(=O)NC(CC(=O)OC)C(=O)NC(CC(=O)OC)C(=O)NC(CC(=O)OC)C(=O)NC(CC(=O)OC)C(=O)NC(CC(=O)OC)C(=O)NN` (centres undefined) (Cbz-D(OMe)D(OMe)D(OMe)D(OMe)D(OMe)D(OMe)-NHNH2; configuration not given here): the TGI in [1], in test [2], in test [3], in test [4], in test [5] and in [7] was greater than 100 µM each time. Moreover, in [9], the TGI was greater than 100 µM.
Consider `CCN1CCC(O)(C(C(=O)O)c2ccccc2)CC1` (centres undefined), for which the TGI in test [1], in [2], in test [3], in test [5], in test [6] and in [7] was greater than 100 µM throughout. The TGI in [8], in test [9] and in [10] was greater than 100 µM in each case.
With `O=C(CSc1n[nH]c(=O)[nH]c1=O)NNC(=O)c1cccc2nc3ccccc3nc12`, the TGI in test [1], in test [2], in test [3], in test [4], in test [5] and in test [7] was greater than 100 µM in each case. Besides, the TGI in [8], in [9] and in test [10] was greater than 100 µM each time.
On to `COC(=O)c1ccc(C=Nc2ccc(S(N)(=O)=O)cc2)cc1`, for which the TGI in [1], in [2], in test [3], in test [4], in test [5] and in test [7] was greater than 100 µM each time. Also, the TGI in test [8] and in test [9] was greater than 100 µM throughout.
As for `Cn1c([O-])nc(-n2cc[n+](C)c2)cc1=O`, the TGI in test [1], in test [2], in test [3], in test [4], in [5] and in [7] was greater than 100 µM in each case. Further, the TGI in test [8], in test [9] and in test [10] was greater than 100 µM throughout.
Take `Brc1ccc2c(-c3csc(-c4c[nH]c5cc(Br)ccc45)n3)c[nH]c2c1`: the TGI in test [1] was 58.2 µM; in test [2] it was 87.1 µM; in test [3], greater than 100 µM; in test [4] it was 32.3 µM; in test [5] it was greater than 100 µM; in test [7], greater than 70.6 µM. Further, the TGI in test [8] was greater than 100 µM; in test [9], greater than 57.1 µM; in test [10], 53.2 µM.
Take `COc1ccc(-c2c(C#N)c(N)nc3c2CCS(=O)(=O)c2ccccc2-3)cc1`: the TGI in [1], in test [2], in test [3], in [4], in test [5] and in test [6] was greater than 100 µM in each case. The TGI in test [7], in test [9] and in [10] was greater than 100 µM each time.

The values are drawn from PubChem BioAssay (NCI).
